Test [1] has as its system Ba/F3 cells expressing EGFR mutations. Briefly: Cell proliferation assay, Ba/F3 cells expressing EGFR mutations (CellTiter-Glo, 72 hours). The test is classed as cell-based. The following applies: Mus musculus, BaF3, 72 h. In outline:
(§1)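 Ba/F3 cells (5000/well) and PC-9 cells (500/well, RPMI1640 with 10% FBS) were plated overnight and then dosed with a compound concentration series. Viable cells were read at day 0 (G0) and after treatment (G3). GI50 came from curve fits of G0-corrected proliferation relative to DMSO.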

The subject of test [2] is PC-9. Description: Cell proliferation assay, PC-9 cells (CellTiter-Glo, 72 hours). The test is classed as cell-based. The following applies: Homo sapiens, PC-9, 72 h, PC9 cells, read-out: GI50 PC9. In outline: as §1
Test [3] addresses T1, EGFR L858R/T790M (Homo sapiens, UniProt P00533, L858R/T790M).
T1 construct: purchased Carna Bio
Briefly: Inhibition of EGFR L858R/T790M biochemical enzymatic activity (HTRF). The following applies: EGFR L858R/T790M, 1 mM ATP, 1 h at room temperature, read-out: IC50 @L858R-T790M. In outline: (§2)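 1 mM ATP, 1 μM biotin-TK peptide, 5 mM MgCl2, 1 mM MnCl2, 0.01% CHAPS, 1 mM DTT, 0.5% DMSO; 1 h RT; EDTA stop; HTRF 665/615 nm; IC50 via 4PL.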
Background: In TR-FRET formats the signal depends on donor and acceptor labels being close together.

The target of test [4] is T2, EGFR Exon19Del/T790M (Homo sapiens, UniProt P00533, DEL746-750/T790M).
T2 construct: purchased Carna Bio
Description: Inhibition of EGFR Exon19Del/T790M biochemical enzymatic activity (HTRF). The following applies: EGFR Exon19Del/T790M, 1 mM ATP, 1 h at room temperature, read-out: IC50 @Del19-T790M. In outline: as §2

The target in test [5] is T3, EGFR wild type (Homo sapiens, UniProt P00533).
T3 construct: purchased Carna Bio
Description: Inhibition of EGFR wild type biochemical enzymatic activity (HTRF). The following applies: EGFR wild type, 1 mM ATP, 1 h at room temperature, read-out: IC50 @WT. In outline:
as §2

In test [6] the target is T4, EGFR[T790M/C797S/d746-750] (Homo sapiens, UniProt P00533, C797S/DEL746-750/T790M).
T4 construct: purchased Carna Bio
Briefly: Inhibition of EGFR[T790M/C797S/d746-750] biochemical enzymatic activity (HTRF). The following applies: EGFR[T790M/C797S/d746-750], 1 mM ATP, 1 h at room temperature, read-out: IC50 @T790M - C797S - Del19. In outline: as §2

For test [7], the system named is A-431. Briefly: Cell proliferation assay, A-431 cells (GI50, Table 6). The test is classed as cell-based. The following applies: Homo sapiens, A-431, A-431 cells.
Test [8] deals with T5, EGFR (d746-750 C797S) (Homo sapiens, UniProt P00533, C797S/DEL746-750).
T5 construct: purchased signalchem
Briefly: Inhibition of EGFR (d746-750 C797S) biochemical enzymatic activity (HTRF). The following applies: EGFR (d746-750 C797S), 1 mM ATP, 1 h at room temperature, read-out: IC50 @Del19-C797S. In outline:
as §2

In test [9] the target is T6, EGFR (C797S L858R) (Homo sapiens, UniProt P00533, C797S/L858R).
T6 construct: purchased signalchem
Briefly: Inhibition of EGFR (C797S L858R) biochemical enzymatic activity (HTRF). The following applies: EGFR (C797S L858R), 1 mM ATP, 1 h at room temperature, read-out: IC50 @L858-C797S. In outline:
as §2

The target in test [10] is T7, EGFR L858R (Homo sapiens, UniProt P00533, L858R).
T7 construct: purchased Carna Bio
Description: Inhibition of EGFR L858R biochemical enzymatic activity (HTRF). The following applies: 1 mM ATP, 1 h at room temperature, read-out: IC50 @L858R. In outline:
as §2

Test [11] deals with T8, EGFR[T790M/C797S/L858R] (Homo sapiens, UniProt P00533, C797S/L858R/T790M).
T8 construct: purchased Carna Bio
Briefly: Inhibition of EGFR[T790M/C797S/L858R] biochemical enzymatic activity (HTRF). The following applies: EGFR[T790M/C797S/L858R], 1 mM ATP, 1 h at room temperature, read-out: IC50 @T790M- C797S - L858R. In outline: as §2

In test [12] the target is T9, EGFR Exon19Del (Homo sapiens, UniProt P00533, DEL746-750).
T9 construct: purchased Carna Bio
Briefly: Inhibition of EGFR Exon19Del biochemical enzymatic activity (HTRF). The following applies: EGFR Exon19Del, 1 mM ATP, 1 h at room temperature, read-out: IC50 @Del19. In outline: as §2

[13] abbreviates: BaF3 cells, EGFR DEL19 - C797S, read-out: GI50 DEL19 - C797S/BaF3.
The mark [14] stands for this setting: BaF3 cells, EGFR DEL19 - T790-C797S, read-out: GI50 DEL19 - T790-C797S/BaF3.
Setting [15] is: BaF3 cells, EGFR L858R - C797S, read-out: GI50 L858R - C797S/BaF3.
Where [16] appears, read: BaF3 cells, EGFR L858R - T790-C797S, read-out: GI50 L858R - T790-C797S/BaF3.
The mark [17] stands for this setting: BaF3 cells, EGFR L858R - T790M, read-out: GI50 L858R - T790M/BaF3.
Setting [18] is: BaF3 cells, EGFR L858R, read-out: GI50 L858R/BaF3.
[19] abbreviates: EGFR DEL19 - T790M, read-out: GI50 DEL19 - T790M.

From patent publication US20260365670A1, “EGFR INHIBITORS AND USES THEREOF” (DIZAL (JIANGSU) PHARMACEUTICAL CO., LTD., priority 2022, published 2026) come the findings set out here.

Read-outs that look alike come from different tables or passages of the source.

T7 sequence (P00533 25-1210 L858R): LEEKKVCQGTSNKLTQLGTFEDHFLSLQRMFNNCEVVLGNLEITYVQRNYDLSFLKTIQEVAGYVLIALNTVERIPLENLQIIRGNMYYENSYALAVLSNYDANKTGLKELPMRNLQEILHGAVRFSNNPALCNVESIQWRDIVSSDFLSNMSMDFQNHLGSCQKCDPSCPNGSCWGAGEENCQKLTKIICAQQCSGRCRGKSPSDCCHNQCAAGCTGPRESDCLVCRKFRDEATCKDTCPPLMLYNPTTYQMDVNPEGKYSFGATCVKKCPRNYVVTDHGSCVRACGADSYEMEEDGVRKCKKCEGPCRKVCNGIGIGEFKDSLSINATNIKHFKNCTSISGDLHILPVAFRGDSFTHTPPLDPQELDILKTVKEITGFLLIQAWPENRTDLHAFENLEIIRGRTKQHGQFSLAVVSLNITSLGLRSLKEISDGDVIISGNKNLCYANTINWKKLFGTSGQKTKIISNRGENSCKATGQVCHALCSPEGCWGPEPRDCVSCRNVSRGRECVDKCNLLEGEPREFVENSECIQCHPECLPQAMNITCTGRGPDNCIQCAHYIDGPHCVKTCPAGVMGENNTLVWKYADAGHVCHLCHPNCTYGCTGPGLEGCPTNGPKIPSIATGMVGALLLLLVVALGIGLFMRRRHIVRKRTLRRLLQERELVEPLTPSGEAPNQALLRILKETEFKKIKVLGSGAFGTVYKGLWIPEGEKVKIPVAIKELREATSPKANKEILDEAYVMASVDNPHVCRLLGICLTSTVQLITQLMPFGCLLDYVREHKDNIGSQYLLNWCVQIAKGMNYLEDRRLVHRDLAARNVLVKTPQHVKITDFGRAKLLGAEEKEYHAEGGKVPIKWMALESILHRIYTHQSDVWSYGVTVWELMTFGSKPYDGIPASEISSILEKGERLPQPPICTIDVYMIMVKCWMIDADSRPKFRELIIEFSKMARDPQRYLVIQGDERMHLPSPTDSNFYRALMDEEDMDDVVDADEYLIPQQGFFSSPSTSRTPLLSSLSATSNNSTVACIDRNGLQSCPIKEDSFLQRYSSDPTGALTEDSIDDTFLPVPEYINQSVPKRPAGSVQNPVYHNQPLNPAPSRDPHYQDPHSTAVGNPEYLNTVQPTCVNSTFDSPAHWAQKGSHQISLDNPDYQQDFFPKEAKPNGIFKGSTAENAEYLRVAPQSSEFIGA
T6 sequence (P00533 25-1210 C797S/L858R): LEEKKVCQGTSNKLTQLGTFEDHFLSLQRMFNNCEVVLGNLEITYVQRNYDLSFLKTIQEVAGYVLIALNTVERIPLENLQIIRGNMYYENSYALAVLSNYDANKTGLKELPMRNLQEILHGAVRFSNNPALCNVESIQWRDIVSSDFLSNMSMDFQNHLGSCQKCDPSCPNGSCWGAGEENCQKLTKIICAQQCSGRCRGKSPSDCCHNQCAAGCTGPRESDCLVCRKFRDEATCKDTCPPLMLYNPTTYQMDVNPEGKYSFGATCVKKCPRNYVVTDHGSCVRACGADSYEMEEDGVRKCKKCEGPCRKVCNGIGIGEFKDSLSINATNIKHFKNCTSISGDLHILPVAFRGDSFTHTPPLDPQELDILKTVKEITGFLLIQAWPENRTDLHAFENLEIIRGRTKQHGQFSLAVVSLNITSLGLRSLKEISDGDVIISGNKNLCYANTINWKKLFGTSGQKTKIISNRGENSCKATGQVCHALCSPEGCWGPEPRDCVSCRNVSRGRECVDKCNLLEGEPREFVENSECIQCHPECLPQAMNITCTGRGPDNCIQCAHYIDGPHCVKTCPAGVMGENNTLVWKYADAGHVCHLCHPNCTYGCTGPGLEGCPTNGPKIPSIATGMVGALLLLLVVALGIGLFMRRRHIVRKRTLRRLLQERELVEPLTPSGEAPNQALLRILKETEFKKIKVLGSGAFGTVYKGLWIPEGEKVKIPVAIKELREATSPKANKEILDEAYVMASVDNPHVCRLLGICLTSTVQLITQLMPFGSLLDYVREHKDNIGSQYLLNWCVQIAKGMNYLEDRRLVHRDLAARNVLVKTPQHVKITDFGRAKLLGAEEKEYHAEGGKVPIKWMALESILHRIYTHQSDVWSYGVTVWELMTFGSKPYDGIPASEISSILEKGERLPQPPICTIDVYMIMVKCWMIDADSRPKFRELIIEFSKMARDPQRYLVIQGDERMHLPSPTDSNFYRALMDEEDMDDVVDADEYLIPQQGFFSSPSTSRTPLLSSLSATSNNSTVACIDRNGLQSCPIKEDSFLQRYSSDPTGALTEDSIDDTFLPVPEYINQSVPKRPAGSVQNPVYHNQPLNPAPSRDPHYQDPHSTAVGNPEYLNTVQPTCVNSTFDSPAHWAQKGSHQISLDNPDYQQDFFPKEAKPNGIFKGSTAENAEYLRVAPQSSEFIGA
T1 sequence (P00533 25-1210 T790M/L858R): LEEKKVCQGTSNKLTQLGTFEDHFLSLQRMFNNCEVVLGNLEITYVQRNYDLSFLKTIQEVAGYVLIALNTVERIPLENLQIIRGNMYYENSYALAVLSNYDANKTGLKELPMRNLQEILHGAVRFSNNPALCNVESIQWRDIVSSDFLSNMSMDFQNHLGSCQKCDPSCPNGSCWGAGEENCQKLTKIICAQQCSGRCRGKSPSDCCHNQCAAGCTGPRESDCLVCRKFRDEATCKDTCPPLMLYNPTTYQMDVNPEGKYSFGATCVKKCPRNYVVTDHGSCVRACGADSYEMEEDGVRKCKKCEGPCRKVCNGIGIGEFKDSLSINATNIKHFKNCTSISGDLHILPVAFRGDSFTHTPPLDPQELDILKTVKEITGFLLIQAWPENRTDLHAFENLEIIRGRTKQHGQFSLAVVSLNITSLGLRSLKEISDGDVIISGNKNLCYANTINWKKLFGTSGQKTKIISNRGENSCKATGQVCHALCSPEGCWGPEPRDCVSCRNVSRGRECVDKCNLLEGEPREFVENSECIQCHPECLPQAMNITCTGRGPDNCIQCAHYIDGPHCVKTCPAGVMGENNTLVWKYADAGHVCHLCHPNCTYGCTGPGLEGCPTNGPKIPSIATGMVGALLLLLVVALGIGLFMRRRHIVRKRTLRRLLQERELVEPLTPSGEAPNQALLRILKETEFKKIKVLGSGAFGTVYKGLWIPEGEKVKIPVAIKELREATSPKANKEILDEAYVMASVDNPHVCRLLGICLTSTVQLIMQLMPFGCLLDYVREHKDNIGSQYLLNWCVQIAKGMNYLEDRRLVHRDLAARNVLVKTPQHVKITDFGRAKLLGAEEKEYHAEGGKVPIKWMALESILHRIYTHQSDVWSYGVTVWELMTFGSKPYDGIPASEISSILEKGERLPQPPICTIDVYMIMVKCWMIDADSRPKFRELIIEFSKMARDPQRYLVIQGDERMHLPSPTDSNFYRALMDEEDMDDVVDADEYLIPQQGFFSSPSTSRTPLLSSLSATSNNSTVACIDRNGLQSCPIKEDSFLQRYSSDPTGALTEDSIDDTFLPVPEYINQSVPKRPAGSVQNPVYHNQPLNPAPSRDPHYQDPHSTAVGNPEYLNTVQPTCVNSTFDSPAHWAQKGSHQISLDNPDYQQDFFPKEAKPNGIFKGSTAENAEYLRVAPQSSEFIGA
T9 sequence (P00533 with tags, fused parts or gaps DEL746-750 limits assumed): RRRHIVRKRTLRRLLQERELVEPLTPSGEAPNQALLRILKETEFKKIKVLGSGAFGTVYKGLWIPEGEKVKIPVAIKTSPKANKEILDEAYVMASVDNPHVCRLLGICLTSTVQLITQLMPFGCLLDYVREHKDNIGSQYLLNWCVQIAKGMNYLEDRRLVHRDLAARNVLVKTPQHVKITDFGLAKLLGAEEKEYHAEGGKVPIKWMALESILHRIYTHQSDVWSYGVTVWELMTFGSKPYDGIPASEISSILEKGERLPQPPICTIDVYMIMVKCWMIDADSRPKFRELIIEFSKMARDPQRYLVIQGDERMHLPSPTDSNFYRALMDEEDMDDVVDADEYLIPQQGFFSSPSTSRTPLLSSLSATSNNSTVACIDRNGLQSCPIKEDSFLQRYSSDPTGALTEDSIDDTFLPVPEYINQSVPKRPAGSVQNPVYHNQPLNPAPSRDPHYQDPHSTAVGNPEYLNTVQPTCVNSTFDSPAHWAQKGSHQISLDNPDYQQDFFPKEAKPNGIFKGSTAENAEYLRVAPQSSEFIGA
T4 sequence (P00533 with tags, fused parts or gaps DEL746-750/T790M/C797S limits assumed): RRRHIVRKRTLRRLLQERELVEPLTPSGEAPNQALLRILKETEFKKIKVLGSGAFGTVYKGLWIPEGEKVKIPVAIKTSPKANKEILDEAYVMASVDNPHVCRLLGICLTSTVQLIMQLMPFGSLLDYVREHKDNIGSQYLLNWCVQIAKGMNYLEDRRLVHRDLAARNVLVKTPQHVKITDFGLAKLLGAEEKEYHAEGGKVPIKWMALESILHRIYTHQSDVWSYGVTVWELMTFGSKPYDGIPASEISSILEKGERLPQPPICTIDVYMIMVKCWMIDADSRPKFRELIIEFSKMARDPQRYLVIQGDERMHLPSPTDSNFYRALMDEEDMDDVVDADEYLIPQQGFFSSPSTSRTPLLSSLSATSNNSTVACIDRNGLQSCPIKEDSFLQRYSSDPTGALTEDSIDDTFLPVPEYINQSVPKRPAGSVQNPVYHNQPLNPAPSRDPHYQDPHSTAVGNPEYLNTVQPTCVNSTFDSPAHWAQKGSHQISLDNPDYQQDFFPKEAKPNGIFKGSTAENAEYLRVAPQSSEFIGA

For the molecule `Cc1cc2cc(n1)-c1cnn(C)c1OCCN1CC3CCC(C3)(C1)n1c(nc3ccccc31)NC2=O` (centres unmarked) [Example B8B, 15,21-dimethyl-23-oxa-2,9,11,16,20,21,26-heptaazaheptacyclo[24.4.1.1^{1,28}.1^{13,17}.0^{2,10}.0^{3,8}.0^{18,22}]tritriaconta-3,5,7,9,13,15,17(33),18(22),19-nonaen-12-one], the GI50 in [1] (setting [13]) was 4.8 nM; in test [1] (setting [14]), 2.1 nM; in test [1] (setting [15]) it was 53 nM; in [1] (setting [16]), 2.4 nM; in [1] (setting [17]) it was 8.6 nM; in test [1] (setting [18]), 72 nM. In addition, the GI50 worked out at 2.6 nM in [1] (setting [19]), 63 nM in test [2] and 2710 nM in test [7]. Also, the IC50 (usually the midpoint of a concentration-inhibition curve) in test [3] was 1.3 nM; in [4], 0.95 nM; in test [5] it was over 5000 nM; in [6], 0.98 nM; in test [8], 4.2 nM; in test [9], 200 nM. In addition, the IC50 was 469 nM in [10], 1 nM in test [11] and 14 nM in test [12].

As for `Cc1cc2cc(n1)-c1cnn(C)c1OCCN1CC3CCC(C3)(C1)n1c(nc3ccc(N4CCN(C)CC4)cc31)NC2=O` (centres unmarked) [Example B9B, 15,21-Dimethyl-5-(4-methylpiperazin-1-yl)-23-oxa-2,9,11,16,20,21,26-heptaazaheptacyclo[24.4.1.1^{1,28}.1^{13,17}.0^{2,10}.0^{3,8}.0^{18,22}]tritriaconta-3,5,7,9,13,15,17(33),18(22),19-nonaen-12-one], the GI50 in test [1] (setting [13]) came out at 0.58 nM; in test [1] (setting [14]), 0.59 nM; in test [1] (setting [15]), 3.2 nM; in [1] (setting [16]), 0.6 nM; in [1] (setting [17]) it was 0.83 nM; in [1] (setting [18]), 2.7 nM. In addition, the GI50 in test [1] (setting [19]) worked out at 0.6 nM; in test [2], 6.1 nM; in test [7], 366 nM. For the same molecule, the IC50 in test [3] was determined as 1.1 nM; in test [4], 1.3 nM; in test [5], 114 nM; in test [6], 1.4 nM; in test [8] it was 0.73 nM; in [9], 3.3 nM. The IC50 in test [10] is 7.4 nM; in test [11], 1 nM; in [12], 1.4 nM.

For `Cc1cc2cc(n1)-c1cc(=O)n(C)cc1OCCC[C@@H](C)Cn1c(nc3ccccc31)NC2=O` [Example B11, (12R)-5,12,27-Trimethyl-8-oxa-5,14,21,23,28-pentaazapentacyclo[23.3.1.0^{2,7}.0^{14,22}.0^{15,20}]nonacosa-1(29),2,6,15,17,19,21,25,27-nonaene-4,24-dione], the GI50 in test [1] (setting [13]) was 626 nM; in test [1] (setting [14]) it was 269 nM; in [1] (setting [15]) it was 2440 nM; in test [1] (setting [16]), 764 nM; in test [1] (setting [17]), 2520 nM; in [1] (setting [18]), 3570 nM. Also, the GI50 was found to be 441 nM in [1] (setting [19]), 1490 nM in test [2] and 5380 nM in [7]. Moreover, the IC50 is over 5000 nM in test [3]; 510 nM in [4]; over 5000 nM in test [5]; 401 nM in [6]; 4320 nM in test [8]; over 5000 nM in test [9]. Further, the IC50 in [10], in [11] and in [12] was over 5000 nM throughout.

Turning to `Cc1cc2cc(n1)-c1cnn(C)c1OCCC[C@@H](C)Cn1c(nc3ccc4c(c31)CCN(CCN(C)C)C4)NC2=O` [Example B12, (11R)-18-[2-(dimethylamino)ethyl]-5,11,30-trimethyl-7-oxa-4,5,13,18,24,26,31-heptaazahexacyclo[26.3.1.0^{2,6}.0^{13,25}.0^{14,23}.0^{15,20}]dotriaconta-1(31),2(6),3,14,20,22,24,28(32),29-nonaen-27-one], the GI50 in test [1] (setting [13]) was 1.4 nM; in [1] (setting [14]) it was 0.56 nM; in test [1] (setting [15]) it was 5.6 nM; in test [1] (setting [16]), 0.38 nM; in test [1] (setting [17]), 1 nM; in test [1] (setting [18]), 4 nM. The figures for the GI50 in test [1] (setting [19]), in test [2] and in [7] were 0.79 nM, 12 nM and 1080 nM, respectively. Moreover, the IC50 in test [3] was 3.9 nM; in [4] it was 2.5 nM; in test [5], over 5000 nM; in test [6] it was 2.6 nM; in [8], 2.3 nM; in [9], 11 nM. Also, the figures for the IC50 in test [10], in test [11] and in test [12] were 44 nM, 3 nM and 3.7 nM, respectively.

For the molecule `Cc1cc2cc(n1)-c1cnn(C)c1OCCC[C@@H](C)Cn1c(nc3ccc4c(c31)CCN(C1COC1)C4)NC2=O` [Example B13, (11R)-5,11,30-trimethyl-18-(oxetan-3-yl)-7-oxa-4,5,13,18,24,26,31-heptaazahexacyclo[26.3.1.0^{2,6}.0^{13,25}.0^{14,23}.0^{15,20}]dotriaconta-1(31),2(6),3,14,20,22,24,28(32),29-nonaen-27-one], the GI50 in [1] (setting [13]) turned out to be 4.8 nM; in [1] (setting [14]), 1 nM; in test [1] (setting [15]), 20 nM; in test [1] (setting [16]) it was 1.2 nM; in test [1] (setting [17]) it was 3.4 nM; in test [1] (setting [18]), 18 nM. Also, the GI50 is 2.9 nM in test [1] (setting [19]), 22 nM in [2] and 507 nM in test [7]. The half-maximal inhibitory concentration (IC50) in test [3] turned out to be 7 nM; in [4], 3.2 nM; in test [5], 2540 nM; in test [6], 4.1 nM; in [8] it was 3.8 nM; in test [9], 37 nM. The figures for the IC50 in [10], in test [11] and in [12] were 160 nM, 4.2 nM and 5.8 nM, respectively.

Consider `Cc1cc2cc(n1)-c1cnn(C)c1OCCCCCn1c(nc3ccc4c(c31)CCNC4)NC2=O` [Example B16, 5,30-dimethyl-7-oxa-4,5,13,18,24,26,31-heptaazahexacyclo[26.3.1.0^{2,6}.0^{13,25}.0^{14,23}.0^{15,20}]dotriaconta-1(31),2(6),3,14,20,22,24,28(32),29-nonaen-27-one], for which the GI50 in test [1] (setting [13]) turned out to be 57 nM; in test [1] (setting [15]), 297 nM; in test [1] (setting [16]), 8.8 nM; in test [1] (setting [17]), 308 nM; in test [1] (setting [18]), 286 nM; in test [1] (setting [19]), 29 nM. In addition, the GI50 in test [2] turned out to be 438 nM; in [7], 3230 nM. Also, the IC50 was 446 nM in test [3]; 7.1 nM in test [4]; over 5000 nM in test [5]; 3.2 nM in test [6]; 197 nM in [8]; over 5000 nM in test [9]. Besides, the IC50 was over 5000 nM in test [10], 55 nM in [11] and 497 nM in test [12].
